Measurements: US10040781B2, “Tank-binding kinase inhibitor compounds” (Gilead Sciences, Inc., priority 2014, dated 2018)

Assays:
TBK1 = TBK1 (Homo sapiens (Human), UniProt Q9UHD2); assay: TBK1 TR-FRET enzymatic assay;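 further: phosphorylation of a biotinylated Ser/Thr peptide by purified full-length recombinant TBK1, read by TR-FRET after 240 min at 25 °C, IC50 is the geometric mean of at least four runs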
hJAK2 = hJAK2 (Homo sapiens (Human), UniProt O60674); assay: hJAK2 LANCE TR-FRET enzymatic assay; type: biochemical; conditions: read-out: JAK2 IC50
Chain of hJAK2 (O60674 whole entry): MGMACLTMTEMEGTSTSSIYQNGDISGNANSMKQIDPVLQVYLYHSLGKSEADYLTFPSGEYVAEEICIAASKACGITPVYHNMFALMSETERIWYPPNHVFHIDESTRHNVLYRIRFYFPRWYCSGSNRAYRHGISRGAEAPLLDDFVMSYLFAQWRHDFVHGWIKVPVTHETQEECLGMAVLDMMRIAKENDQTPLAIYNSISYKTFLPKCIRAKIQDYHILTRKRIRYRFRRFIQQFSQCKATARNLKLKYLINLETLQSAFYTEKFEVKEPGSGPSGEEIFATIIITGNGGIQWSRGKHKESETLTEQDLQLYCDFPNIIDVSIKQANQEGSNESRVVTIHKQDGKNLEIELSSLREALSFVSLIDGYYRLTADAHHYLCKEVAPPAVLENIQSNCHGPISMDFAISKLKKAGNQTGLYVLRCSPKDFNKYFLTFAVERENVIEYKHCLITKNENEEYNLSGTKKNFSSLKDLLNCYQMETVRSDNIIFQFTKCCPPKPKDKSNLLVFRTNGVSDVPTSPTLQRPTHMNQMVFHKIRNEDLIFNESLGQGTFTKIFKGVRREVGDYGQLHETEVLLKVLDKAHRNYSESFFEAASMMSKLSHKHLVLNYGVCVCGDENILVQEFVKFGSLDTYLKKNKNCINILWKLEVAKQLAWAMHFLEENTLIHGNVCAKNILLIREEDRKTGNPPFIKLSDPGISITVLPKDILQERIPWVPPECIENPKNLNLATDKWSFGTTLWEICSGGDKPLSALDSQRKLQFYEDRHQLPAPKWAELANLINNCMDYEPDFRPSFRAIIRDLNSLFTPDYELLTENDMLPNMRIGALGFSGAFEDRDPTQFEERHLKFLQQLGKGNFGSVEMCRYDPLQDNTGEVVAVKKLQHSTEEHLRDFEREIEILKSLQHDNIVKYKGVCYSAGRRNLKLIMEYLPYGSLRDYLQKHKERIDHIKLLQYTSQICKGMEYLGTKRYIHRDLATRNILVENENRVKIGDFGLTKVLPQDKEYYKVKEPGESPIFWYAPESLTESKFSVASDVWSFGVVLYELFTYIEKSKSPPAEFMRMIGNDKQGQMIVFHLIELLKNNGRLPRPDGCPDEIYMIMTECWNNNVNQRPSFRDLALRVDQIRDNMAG

IKKε = IKKε (Homo sapiens (Human), UniProt Q14164); assay: IKKε TR-FRET enzymatic assay; type: biochemical; conditions: TR-FRET, 2×Km ATP; geometric mean of minimum four determinations; read-out: IKKe IC50
Chain of IKKε (Q14164 whole entry): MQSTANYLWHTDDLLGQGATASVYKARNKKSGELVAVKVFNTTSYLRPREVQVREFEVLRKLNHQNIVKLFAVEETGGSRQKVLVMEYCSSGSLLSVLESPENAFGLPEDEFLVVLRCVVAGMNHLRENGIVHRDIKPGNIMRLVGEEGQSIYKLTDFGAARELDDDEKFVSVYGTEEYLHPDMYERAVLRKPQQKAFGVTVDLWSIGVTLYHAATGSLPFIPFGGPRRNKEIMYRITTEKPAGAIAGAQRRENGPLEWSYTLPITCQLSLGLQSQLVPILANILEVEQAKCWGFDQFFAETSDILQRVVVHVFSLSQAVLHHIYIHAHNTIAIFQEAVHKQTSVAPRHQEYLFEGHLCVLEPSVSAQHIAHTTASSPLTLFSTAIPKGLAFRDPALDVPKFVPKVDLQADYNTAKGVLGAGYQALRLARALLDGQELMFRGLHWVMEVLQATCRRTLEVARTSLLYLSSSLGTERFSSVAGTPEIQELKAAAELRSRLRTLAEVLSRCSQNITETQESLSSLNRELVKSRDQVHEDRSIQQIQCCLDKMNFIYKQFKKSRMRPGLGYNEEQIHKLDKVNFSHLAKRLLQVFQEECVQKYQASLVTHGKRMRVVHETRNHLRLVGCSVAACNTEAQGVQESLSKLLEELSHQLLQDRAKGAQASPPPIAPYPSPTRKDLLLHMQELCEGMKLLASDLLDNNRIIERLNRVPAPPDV

Chain of TBK1 (Q9UHD2 whole entry): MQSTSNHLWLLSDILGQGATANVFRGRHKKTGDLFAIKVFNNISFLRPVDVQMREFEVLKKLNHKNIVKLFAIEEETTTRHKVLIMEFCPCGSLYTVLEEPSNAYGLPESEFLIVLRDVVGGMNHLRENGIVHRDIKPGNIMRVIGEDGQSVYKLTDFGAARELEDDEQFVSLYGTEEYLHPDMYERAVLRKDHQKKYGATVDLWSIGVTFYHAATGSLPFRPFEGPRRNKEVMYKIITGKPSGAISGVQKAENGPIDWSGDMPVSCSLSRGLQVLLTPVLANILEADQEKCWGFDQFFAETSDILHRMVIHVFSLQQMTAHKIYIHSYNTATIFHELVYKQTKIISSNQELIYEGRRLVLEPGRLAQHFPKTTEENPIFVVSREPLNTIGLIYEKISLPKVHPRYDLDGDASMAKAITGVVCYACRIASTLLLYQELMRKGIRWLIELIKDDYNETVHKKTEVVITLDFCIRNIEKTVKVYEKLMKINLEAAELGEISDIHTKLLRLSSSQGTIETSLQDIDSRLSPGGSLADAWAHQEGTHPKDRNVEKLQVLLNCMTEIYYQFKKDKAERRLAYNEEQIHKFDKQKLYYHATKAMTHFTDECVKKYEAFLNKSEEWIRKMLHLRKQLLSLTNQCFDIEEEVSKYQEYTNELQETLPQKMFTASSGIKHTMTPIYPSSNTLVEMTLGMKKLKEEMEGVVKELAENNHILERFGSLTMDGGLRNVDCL

| SMILES | IC50 (TBK1) [nM] | IC50 (hJAK2) [nM] | IC50 (IKKε) [nM] |
| --- | --- | --- | --- |
| N#Cc1cc(-c2ncnc(Nc3ccc(N4CCN(C5COC5)CC4)cc3)n2)ccc1O[C@H]1CCN(C(=O)[C@H]2CCCO2)C[C@H]1F [Example 505, 2-(((3R,4S)-3-fluoro-1-((R)-tetrahydrofuran-2-carbonyl)piperidin-4-yl)oxy)-5-(4-((4-(4-(oxetan-3-yl)piperazin-1-yl)phenyl)amino)-1,3,5-triazin-2-yl)benzonitrile] | 12 | 532 | 41 |
| N#Cc1cc(-c2ncnc(Nc3cnn(CCO)c3)n2)ccc1O[C@H]1CCN(C(=O)CO)C[C@H]1F [Example 506, 2-(((3R,4S)-3-fluoro-1-(2-hydroxyacetyl)piperidin-4-yl)oxy)-5-(4-((1-(2-hydroxyethyl)-1H-pyrazol-4-yl)amino)-1,3,5-triazin-2-yl)benzonitrile] | 3 | 601 | 3 |
| N#Cc1cc(-c2ncnc(Nc3cn[nH]c3)n2)ccc1O[C@H]1CCN(C(=O)CO)C[C@H]1F [Example 507, 5-(4-((1H-pyrazol-4-yl)amino)-1,3,5-triazin-2-yl)-2-(((3R,4S)-3-fluoro-1-(2-hydroxyacetyl)piperidin-4-yl)oxy)benzonitrile] | 3 | 432 | 2 |
| N#Cc1cc(-c2ncnc(Nc3ccc(C4CCN(C5COC5)CC4)cc3)n2)ccc1O[C@H]1CCN(C(=O)[C@@H](O)CO)C[C@H]1F [Example 509, 2-(((3R,4S)-1-((S)-2,3-dihydroxypropanoyl)-3-fluoropiperidin-4-yl)oxy)-5-(4-((4-(1-(oxetan-3-yl)piperidin-4-yl)phenyl)amino)-1,3,5-triazin-2-yl)benzonitrile] | 3 | 699 | 1 |
| N#Cc1cc(-c2ncnc(Nc3ccc(N4CCN(C5COC5)CC4)nc3)n2)ccc1O[C@H]1CCN(C(=O)[C@@H](O)CO)C[C@H]1F [Example 510, 2-(((3R,4S)-1-((S)-2,3-dihydroxypropanoyl)-3-fluoropiperidin-4-yl)oxy)-5-(4-((6-(4-(oxetan-3-yl)piperazin-1-yl)pyridin-3-yl)amino)-1,3,5-triazin-2-yl)benzonitrile] | 4 | ≥ 1000 | 2 |
| COc1cc(Nc2ncnc(-c3ccc(O[C@H]4CCN(C(=O)[C@@H](O)CO)C[C@H]4F)c(C#N)c3)n2)cnc1N1CCN(C2COC2)CC1 [Example 511, 2-(((3R,4S)-1-((S)-2,3-dihydroxypropanoyl)-3-fluoropiperidin-4-yl)oxy)-5-(4-((5-methoxy-6-(4-(oxetan-3-yl)piperazin-1-yl)pyridin-3-yl)amino)-1,3,5-triazin-2-yl)benzonitrile] | 4 | ≥ 1000 | 2 |
| CC(C)(O)Cn1cc(Nc2ncnc(-c3ccc(O[C@H]4CCN(C(=O)[C@@H](O)CO)C[C@H]4F)c(C#N)c3)n2)cn1 [Example 512, 2-(((3R,4S)-1-((S)-2,3-dihydroxypropanoyl)-3-fluoropiperidin-4-yl)oxy)-5-(4-((1-(2-hydroxy-2-methylpropyl)-1H-pyrazol-4-yl)amino)-1,3,5-triazin-2-yl)benzonitrile] | 2 | ≥ 1000 | 2 |
| Cc1cc(Nc2ncnc(-c3ccc(O[C@H]4CCN(C(=O)[C@@H](O)CO)C[C@H]4F)c(C#N)c3)n2)cnc1N1CCN(C2COC2)CC1 [Example 513, 2-(((3R,4S)-1-((S)-2,3-dihydroxypropanoyl)-3-fluoropiperidin-4-yl)oxy)-5-(4-((5-methyl-6-(4-(oxetan-3-yl)piperazin-1-yl)pyridin-3-yl)amino)-1,3,5-triazin-2-yl)benzonitrile] | 2 | 517 | 1 |
| C[C@H](O)C(=O)N1CC[C@H](Oc2ccc(-c3ncnc(Nc4cnc5c(c4)OCCN5)n3)cc2C#N)[C@H](F)C1 [Example 516, 5-(4-((3,4-dihydro-2H-pyrido[3,2-b][1,4]oxazin-7-yl)amino)-1,3,5-triazin-2-yl)-2-(((3R,4S)-3-fluoro-1-((S)-2-hydroxypropanoyl)piperidin-4-yl)oxy)benzonitrile] | 6 | ≥ 1000 | 10 |
| C[C@H](O)C(=O)N1CC[C@H](Oc2ccc(-c3ncnc(Nc4ccc5c(c4)NCCO5)n3)cc2C#N)[C@H](F)C1 [Example 517, 5-(4-((3,4-dihydro-2H-benzo[b][1,4]oxazin-6-yl)amino)-1,3,5-triazin-2-yl)-2-(((3R,4S)-3-fluoro-1-((S)-2-hydroxypropanoyl)piperidin-4-yl)oxy)benzonitrile] | 2 | 828 | 1 |
| N#Cc1cc(-c2ncnc(Nc3ccc(N4CCN(C5COC5)CC4)cc3)n2)ccc1O[C@H]1CCN(C(=O)[C@@H]2COC(=O)N2)CC1(F)F [Example 519, 2-(((S)-3,3-difluoro-1-((S)-2-oxooxazolidine-4-carbonyl)piperidin-4-yl)oxy)-5-(4-((4-(4-(oxetan-3-yl)piperazin-1-yl)phenyl)amino)-1,3,5-triazin-2-yl)benzonitrile] | 2 | 184 | 1 |
| N#Cc1cc(-c2ncnc(Nc3ccc(N4CCN(C5COC5)CC4)cc3)n2)ccc1O[C@H]1CCN(C(=O)[C@@H]2CSC(=O)N2)CC1(F)F [Example 520, 2-(((S)-3,3-difluoro-1-((R)-2-oxothiazolidine-4-carbonyl)piperidin-4-yl)oxy)-5-(4-((4-(4-(oxetan-3-yl)piperazin-1-yl)phenyl)amino)-1,3,5-triazin-2-yl)benzonitrile] | 2 | 177 | 1 |
| Cc1cc(-c2ncnc(Nc3ccc(N4CCN(C5COC5)CC4)cc3)n2)cc(C#N)c1O[C@H]1CCN(C(=O)[C@H](C)O)C[C@H]1F [Example 521, 2-(((3R,4S)-3-fluoro-1-((S)-2-hydroxypropanoyl)piperidin-4-yl)oxy)-3-methyl-5-(4-((4-(4-(oxetan-3-yl)piperazin-1-yl)phenyl)amino)-1,3,5-triazin-2-yl)benzonitrile] | 16 | ≥ 1000 | 39 |
| Cc1cc(-c2ncnc(Nc3ccc(N4CCN(C5COC5)CC4)cc3)n2)cc(C#N)c1O[C@H]1CCN(C(=O)CO)C[C@H]1F [Example 522, 2-(((3R,4S)-3-fluoro-1-(2-hydroxyacetyl)piperidin-4-yl)oxy)-3-methyl-5-(4-((4-(4-(oxetan-3-yl)piperazin-1-yl)phenyl)amino)-1,3,5-triazin-2-yl)benzonitrile] | 14 | ≥ 1000 | 28 |
| C[C@@H]1OC(=O)N[C@@H]1C(=O)N1CC[C@H](Oc2ccc(-c3ncnc(Nc4ccc(N5CCN(C6COC6)CC5)cc4)n3)cc2C#N)[C@H](F)C1 [Example 524, 2-(((3R,4S)-3-fluoro-1-((4S,5S)-5-methyl-2-oxooxazolidine-4-carbonyl)piperidin-4-yl)oxy)-5-(4-((4-(4-(oxetan-3-yl)piperazin-1-yl)phenyl)amino)-1,3,5-triazin-2-yl)benzonitrile] | 7 | 959 | 29 |
| N#Cc1cc(-c2ncnc(Nc3ccc(N4CCN(C5COC5)CC4)cc3)n2)ccc1O[C@H]1CCN(C(=O)c2coc(=O)[nH]2)C[C@H]1F [Example 525, 2-(((3R,4S)-3-fluoro-1-(2-oxo-2,3-dihydrooxazole-4-carbonyl)piperidin-4-yl)oxy)-5-(4-((4-(4-(oxetan-3-yl)piperazin-1-yl)phenyl)amino)-1,3,5-triazin-2-yl)benzonitrile] | 3 | 390 | 3 |
| Cc1n[nH]c(C(=O)N2CC[C@H](Oc3ccc(-c4ncnc(Nc5ccc(N6CCN(C7COC7)CC6)cc5)n4)cc3C#N)[C@H](F)C2)c1C [Example 526, 2-(((3R,4S)-1-(3,4-dimethyl-1H-pyrazole-5-carbonyl)-3-fluoropiperidin-4-yl)oxy)-5-(4-((4-(4-(oxetan-3-yl)piperazin-1-yl)phenyl)amino)-1,3,5-triazin-2-yl)benzonitrile] | 9 | 447 | 19 |
| Cc1c[nH]c(C(=O)N2CC[C@H](Oc3ccc(-c4ncnc(Nc5ccc(N6CCN(C7COC7)CC6)cc5)n4)cc3C#N)[C@H](F)C2)n1 [Example 527, 2-(((3R,4S)-3-fluoro-1-(4-methyl-1H-imidazole-2-carbonyl)piperidin-4-yl)oxy)-5-(4-((4-(4-(oxetan-3-yl)piperazin-1-yl)phenyl)amino)-1,3,5-triazin-2-yl)benzonitrile] | 5 | 323 | 8 |
| Cc1cn[nH]c1C(=O)N1CC[C@H](Oc2ccc(-c3ncnc(Nc4ccc(N5CCN(C6COC6)CC5)cc4)n3)cc2C#N)[C@H](F)C1 [Example 528, 2-(((3R,4S)-3-fluoro-1-(4-methyl-1H-pyrazole-5-carbonyl)piperidin-4-yl)oxy)-5-(4-((4-(4-(oxetan-3-yl)piperazin-1-yl)phenyl)amino)-1,3,5-triazin-2-yl)benzonitrile] | 8 | 368 | 20 |
| N#Cc1cc(-c2ncnc(Nc3ccc(N4CCN(C5COC5)CC4)cc3)n2)ccc1O[C@H]1CCN(C(=O)[C@@H]2CC(=O)N2)C[C@H]1F [Example 529, 2-(((3R,4S)-3-fluoro-1-((S)-4-oxoazetidine-2-carbonyl)piperidin-4-yl)oxy)-5-(4-((4-(4-(oxetan-3-yl)piperazin-1-yl)phenyl)amino)-1,3,5-triazin-2-yl)benzonitrile] | 3 | 356 | 4 |
| COc1cc(Nc2ncnc(-c3ccc(O[C@@H]4CCC(=O)NC4)c(C#N)c3)n2)ccc1N1CCN(C2COC2)CC1 [Example 531, (R)-5-(4-((3-methoxy-4-(4-(oxetan-3-yl)piperazin-1-yl)phenyl)amino)-1,3,5-triazin-2-yl)-2-((6-oxopiperidin-3-yl)oxy)benzonitrile] | 4 | 55 | 3 |
